Results reported in PMC5218480 (PLoS ONE, 2017).

Test system: MV-4-11 cells
Assay: Gene expression microarray analysis (Affymetrix PrimeView) and GSEA
Format: cell-based, human
Design: RFU PODN (11730768_x_at) / Fold change /veh PODN (11730768_x_at) / RFU LINC00158 (11744669_a_at) / Fold change /veh LINC00158 (11744669_a_at) / RFU DUSP10 (11751237_a_at) / Fold change /veh DUSP10 (11751237_a_at) / RFU ID3 (11757404_x_at) / Fold change /veh ID3 (11757404_x_at) / RFU PLEKHG5 (11737974_s_at) / Fold change /veh PLEKHG5 (11737974_s_at) / RFU LRRC4B (11730491_at) / Fold change /veh LRRC4B (11730491_at) / RFU GIMAP4 (11747438_a_at) / Fold change /veh GIMAP4 (11747438_a_at) / RFU KRT8 (11758183_x_at) / Fold change /veh KRT8 (11758183_x_at) / RFU CNN1 (11734310_a_at) / Fold change /veh CNN1 (11734310_a_at) / RFU VPS37D (11726825_at) / Fold change /veh VPS37D (11726825_at) / RFU C10orf10 (11716522_x_at) / Fold change /veh C10orf10 (11716522_x_at) / RFU KIR2DL2 /// KIR2DL4 /// KIR2DL5A /// KIR2DL5B /// KIR2DS1 /// KIR2DS2 /// KIR2DS3 /// KIR2DS4 /// KIR3DL3 /// KIR3DL3 /// KIR3DS1 (11738374_at) / Fold change /veh KIR2DL2 /// KIR2DL4 /// KIR2DL5A /// KIR2DL5B /// KIR2DS1 /// KIR2DS2 /// KIR2DS3 /// KIR2DS4 /// KIR3DL3 /// KIR3DL3 /// KIR3DS1 (11738374_at) / RFU C1QL1 (11718748_at) / Fold change /veh C1QL1 (11718748_at) / RFU TMPRSS4 (11747572_a_at) / Fold change /veh TMPRSS4 (11747572_a_at) / RFU HAMP (11756126_x_at) / Fold change /veh HAMP (11756126_x_at) / RFU RNFT2 (11725882_a_at) / Fold change /veh RNFT2 (11725882_a_at) / RFU NR4A2 (11747474_a_at) / Fold change /veh NR4A2 (11747474_a_at) / RFU ABCC12 (11746883_a_at) / Fold change /veh ABCC12 (11746883_a_at) / RFU TMEM136 (11760407_x_at) / Fold change /veh TMEM136 (11760407_x_at) / RFU CLDN22 /// WWC2 (11732394_at) / Fold change /veh CLDN22 /// WWC2 (11732394_at) / RFU HLA-DPB1 (11760878_x_at) / Fold change /veh HLA-DPB1 (11760878_x_at) / RFU SPINT1 (11716480_a_at) / Fold change /veh SPINT1 (11716480_a_at) / RFU GAP43 (11754022_s_at) / Fold change /veh GAP43 (11754022_s_at) / RFU A4GNT (11735810_at) / Fold change /veh A4GNT (11735810_at) / RFU PRB3 (11715151_x_at) / Fold change /veh PRB3 (11715151_x_at) / RFU TUBB4B (11761932_at) / Fold change /veh TUBB4B (11761932_at) / RFU CAPN14 (11732068_a_at) / Fold change /veh CAPN14 (11732068_a_at) / RFU TMCC2 (11721928_a_at) / Fold change /veh TMCC2 (11721928_a_at) / RFU IRGQ (11745062_a_at) / Fold change /veh IRGQ (11745062_a_at) / RFU FAM174B (11720279_a_at) / Fold change /veh FAM174B (11720279_a_at) / RFU TMPRSS4 (11748680_a_at) / Fold change /veh TMPRSS4 (11748680_a_at) / RFU FAM212B (11763350_a_at) / Fold change /veh FAM212B (11763350_a_at) / RFU PLEKHG5 (11743358_a_at) / Fold change /veh PLEKHG5 (11743358_a_at) / RFU ZSCAN30 (11745921_a_at) / Fold change /veh ZSCAN30 (11745921_a_at) / RFU CMKLR1 (11741424_a_at) / Fold change /veh CMKLR1 (11741424_a_at) / RFU LOC101060620 /// MAPK8IP1 (11723275_at) / Fold change /veh LOC101060620 /// MAPK8IP1 (11723275_at) / RFU SPTSSB (11747773_x_at) / Fold change /veh SPTSSB (11747773_x_at) / RFU PRSS12 (11739890_at) / Fold change /veh PRSS12 (11739890_at) / RFU BIN1 (11741810_x_at) / Fold change /veh BIN1 (11741810_x_at) / RFU WNT11 (11732464_a_at) / Fold change /veh WNT11 (11732464_a_at) / RFU C10orf10 (11716521_a_at) / Fold change /veh C10orf10 (11716521_a_at) / RFU C5orf56 (11738089_at) / Fold change /veh C5orf56 (11738089_at) / RFU CYB561 (11721691_x_at) / Fold change /veh CYB561 (11721691_x_at) / RFU ANKRD19P (11752326_a_at) / Fold change /veh ANKRD19P (11752326_a_at) / RFU OR2T12 /// OR2T33 /// OR2T8 (11738714_s_at) / Fold change /veh OR2T12 /// OR2T33 /// OR2T8 (11738714_s_at) / RFU VCAN (11748164_a_at) / Fold change /veh VCAN (11748164_a_at) / RFU JSRP1 (11732532_at) / Fold change /veh JSRP1 (11732532_at) / RFU KRTAP10-11 (11738290_x_at) / Fold change /veh KRTAP10-11 (11738290_x_at) / RFU MYO3A (11730013_a_at) / Fold change /veh MYO3A (11730013_a_at) / RFU EBF3 (11725865_a_at) / Fold change /veh EBF3 (11725865_a_at) / RFU CAMK2N1 (11719241_x_at) / Fold change /veh CAMK2N1 (11719241_x_at) / RFU C5orf56 (11738088_a_at) / Fold change /veh C5orf56 (11738088_a_at) / RFU OLFML3 (11715873_a_at) / Fold change /veh OLFML3 (11715873_a_at) / RFU LOC100653217 /// NTM (11731650_a_at) / Fold change /veh LOC100653217 /// NTM (11731650_a_at) / RFU MAPK11 (11762145_a_at) / Fold change /veh MAPK11 (11762145_a_at) / RFU FIZ1 (11724087_x_at) / Fold change /veh FIZ1 (11724087_x_at) / RFU OASL (11726364_x_at) / Fold change /veh OASL (11726364_x_at) / RFU SOX15 (11748057_x_at) / Fold change /veh SOX15 (11748057_x_at) / RFU CD79A (11719716_a_at) / Fold change /veh CD79A (11719716_a_at) / RFU HIST1H1D (11736915_at) / Fold change /veh HIST1H1D (11736915_at) / RFU CASKIN2 (11723855_a_at) / Fold change /veh CASKIN2 (11723855_a_at) / RFU LOC730098 (11760151_x_at) / Fold change /veh LOC730098 (11760151_x_at) / RFU OR4N2 (11742367_at) / Fold change /veh OR4N2 (11742367_at) / RFU PRRT2 (11749266_a_at) / Fold change /veh PRRT2 (11749266_a_at) / RFU SNX32 (11753110_a_at) / Fold change /veh SNX32 (11753110_a_at) / RFU CDHR5 (11726645_a_at) / Fold change /veh CDHR5 (11726645_a_at) / RFU RCAN1 (11760418_a_at) / Fold change /veh RCAN1 (11760418_a_at) / RFU FAM167A (11723789_a_at) / Fold change /veh FAM167A (11723789_a_at) / RFU FAM26E (11764081_at) / Fold change /veh FAM26E (11764081_at) / RFU ISYNA1 (11749810_s_at) / Fold change /veh ISYNA1 (11749810_s_at) / RFU ACY1 (11761880_at) / Fold change /veh ACY1 (11761880_at) / RFU 11764098_at / Fold change /veh 11764098_at / RFU SAMD14 (11745864_x_at) / Fold change /veh SAMD14 (11745864_x_at) / RFU NPB (11741838_a_at) / Fold change /veh NPB (11741838_a_at) / RFU TMPRSS6 (11731388_a_at) / Fold change /veh TMPRSS6 (11731388_a_at) / RFU KRTAP10-2 (11738614_at) / Fold change /veh KRTAP10-2 (11738614_at) / RFU ARHGAP8 /// PRR5-ARHGAP8 (11727945_x_at) / Fold change /veh ARHGAP8 /// PRR5-ARHGAP8 (11727945_x_at) / RFU KRTAP5-7 /// NADSYN1 (11734609_at) / Fold change /veh KRTAP5-7 /// NADSYN1 (11734609_at) / RFU RASL12 (11751679_a_at) / Fold change /veh RASL12 (11751679_a_at) / RFU CDKN2B (11736163_a_at) / Fold change /veh CDKN2B (11736163_a_at) / RFU PRF1 (11729649_at) / Fold change /veh PRF1 (11729649_at) / RFU, ZNF638 /// ZNF638-IT1 / Fold change vs veh, ZNF638 /// ZNF638-IT1 / RFU, PANK3 / Fold change vs veh, PANK3 / RFU, SH3YL1 / Fold change vs veh, SH3YL1 / RFU, ZEB2 / Fold change vs veh, ZEB2 / RFU, NRIP1 / Fold change vs veh, NRIP1 / RFU, PTTG1IP / Fold change vs veh, PTTG1IP / RFU, CAPN2 / Fold change vs veh, CAPN2 / RFU, MED14 / Fold change vs veh, MED14 / RFU, SNORA58 / Fold change vs veh, SNORA58 / RFU, C1orf63 / Fold change vs veh, C1orf63 / RFU, LRRFIP1 / Fold change vs veh, LRRFIP1 / RFU, NDUFAF7 / Fold change vs veh, NDUFAF7 / RFU, SLC12A2 / Fold change vs veh, SLC12A2 / RFU, IBTK / Fold change vs veh, IBTK / RFU, ESF1 / Fold change vs veh, ESF1 / Fold change vs veh, TMEM50B / RFU, TAOK1 / Fold change vs veh, TAOK1 / RFU, ACBD3 / Fold change vs veh, ACBD3 / RFU, TMA16 / Fold change vs veh, TMA16 / RFU, RWDD3 / Fold change vs veh, RWDD3 / RFU, BCAT1 / Fold change vs veh, BCAT1 / RFU, EDEM3 / Fold change vs veh, EDEM3 / RFU, TMEM33 / Fold change vs veh, TMEM33 / RFU, WDR75 / Fold change vs veh, WDR75 / RFU, AHCTF1 / Fold change vs veh, AHCTF1 / RFU, TFRC / Fold change vs veh, TFRC / RFU, ZDHHC17 / Fold change vs veh, ZDHHC17 / RFU, NOM1 / Fold change vs veh, NOM1 / RFU, ARL8B / Fold change vs veh, ARL8B / RFU, ZBTB11 / Fold change vs veh, ZBTB11 / RFU, TAMM41 / Fold change vs veh, TAMM41 / RFU, KIAA1704 /// LOC100996395 / Fold change vs veh, KIAA1704 /// LOC100996395 / RFU, ING1 / Fold change vs veh, ING1 / RFU, TRMT61B / Fold change vs veh, TRMT61B / RFU, FUBP3 / Fold change vs veh, FUBP3 / RFU, TP53 / Fold change vs veh, TP53 / RFU, TNKS2 / Fold change vs veh, TNKS2 / RFU, ZFP14 / Fold change vs veh, ZFP14 / RFU, ACTR2 / Fold change vs veh, ACTR2 / RFU, PPP3R1 / Fold change vs veh, PPP3R1 / RFU, PIK3R1 / Fold change vs veh, PIK3R1 / RFU, HNRNPA1 / Fold change vs veh, HNRNPA1 / RFU, RNF170 / Fold change vs veh, RNF170 / RFU, ZNF28 / Fold change vs veh, ZNF28 / RFU, RNGTT / Fold change vs veh, RNGTT / RFU, OGT / Fold change vs veh, OGT / RFU, BRD1 / Fold change vs veh, BRD1 / RFU, MARS / Fold change vs veh, MARS / RFU, ZNF655 / Fold change vs veh, ZNF655 / RFU, FAHD1 / Fold change vs veh, FAHD1 / RFU, BDP1 / Fold change vs veh, BDP1 / RFU, LRRCC1 / Fold change vs veh, LRRCC1 / RFU, ARID1A / Fold change vs veh, ARID1A / RFU, ZNF146 / Fold change vs veh, ZNF146 / RFU, ZNF330 / Fold change vs veh, ZNF330 / RFU, GPN3 / Fold change vs veh, GPN3 / RFU, C9orf123 / Fold change vs veh, C9orf123 / RFU, N4BP2L2 / Fold change vs veh, N4BP2L2 / RFU, ARFIP1 / Fold change vs veh, ARFIP1 / RFU, FAM179B / Fold change vs veh, FAM179B / RFU, BCL10 / Fold change vs veh, BCL10 / RFU, UHRF1BP1L / Fold change vs veh, UHRF1BP1L / RFU, BET1 / Fold change vs veh, BET1 / RFU, CNOT2 / Fold change vs veh, CNOT2 / RFU, ZNF268 / Fold change vs veh, ZNF268 / Fold change vs veh, ZNF507 / RFU, DGCR2 / Fold change vs veh, DGCR2 / RFU, WDSUB1 / Fold change vs veh, WDSUB1 / Fold change vs veh, HSP90B1 /// MIR3652 / RFU, ADSS / Fold change vs veh, ADSS / RFU, GK / Fold change vs veh, GK / RFU, ZNF148 / Fold change vs veh, ZNF148 / RFU, TAF9 / Fold change vs veh, TAF9 / RFU, SLC1A5 / Fold change vs veh, SLC1A5 / RFU, SLMO2 / Fold change vs veh, SLMO2 / RFU, ABCC4 / Fold change vs veh, ABCC4 / RFU, LOC101060439 /// RAP1B / Fold change vs veh, LOC101060439 /// RAP1B / RFU, RFX7 / Fold change vs veh, RFX7 / RFU, GTPBP10 / Fold change vs veh, GTPBP10 / RFU, CNEP1R1 / Fold change vs veh, CNEP1R1 / RFU, BIVM-ERCC5 /// ERCC5 / Fold change vs veh, BIVM-ERCC5 /// ERCC5 / RFU, ILF3 / Fold change vs veh, ILF3 / RFU 11762660_at / Fold change /veh 11762660_at / RFU VCAN (11757783_s_at) / Fold change /veh VCAN (11757783_s_at) / RFU DDX43 (11728927_at) / Fold change /veh DDX43 (11728927_at) / RFU KRT8 (11758188_x_at) / Fold change /veh KRT8 (11758188_x_at) / RFU NKD1 (11759106_at) / Fold change /veh NKD1 (11759106_at) / RFU SRD5A1 (11742802_a_at) / Fold change /veh SRD5A1 (11742802_a_at) / RFU TPSAB1 /// TPSB2 (11721975_s_at) / Fold change /veh TPSAB1 /// TPSB2 (11721975_s_at) / RFU GSTM3 (11746129_a_at) / Fold change /veh GSTM3 (11746129_a_at) / RFU IL23R (11737362_x_at) / Fold change /veh IL23R (11737362_x_at) / RFU TMEM51 (11727254_a_at) / Fold change /veh TMEM51 (11727254_a_at) / RFU PIWIL2 (11732686_x_at) / Fold change /veh PIWIL2 (11732686_x_at) / RFU ORM1 (11744905_x_at) / Fold change /veh ORM1 (11744905_x_at) / RFU CCDC152 (11743942_at) / Fold change /veh CCDC152 (11743942_at) / RFU ECM1 (11717891_a_at) / Fold change /veh ECM1 (11717891_a_at) / RFU IL23R (11748794_a_at) / Fold change /veh IL23R (11748794_a_at) / RFU TNFAIP8L3 (11732012_x_at) / Fold change /veh TNFAIP8L3 (11732012_x_at) / RFU MBOAT4 (11741988_at) / Fold change /veh MBOAT4 (11741988_at) / RFU 11764193_at / Fold change /veh 11764193_at / RFU TMEM53 (11763286_at) / Fold change /veh TMEM53 (11763286_at) / RFU MAGEB2 (11727129_at) / Fold change /veh MAGEB2 (11727129_at) / RFU TMEM200A (11744735_a_at) / Fold change /veh TMEM200A (11744735_a_at) / RFU CCDC152 (11751479_a_at) / Fold change /veh CCDC152 (11751479_a_at) / RFU FAM211A (11726209_a_at) / Fold change /veh FAM211A (11726209_a_at) / RFU RGS16 (11746705_a_at) / Fold change /veh RGS16 (11746705_a_at) / RFU VCAN (11755009_s_at) / Fold change /veh VCAN (11755009_s_at) / RFU RHOB (11743442_s_at) / Fold change /veh RHOB (11743442_s_at) / RFU RGS16 (11720943_a_at) / Fold change /veh RGS16 (11720943_a_at) / RFU RGS16 (11720944_at) / Fold change /veh RGS16 (11720944_at) / RFU, VPS4B / Fold change vs veh, VPS4B / RFU, CREB1 / Fold change vs veh, CREB1 / RFU, DNAJC13 / Fold change vs veh, DNAJC13 / RFU, GNAQ / Fold change vs veh, GNAQ / RFU, CDK5R1 / Fold change vs veh, CDK5R1 / RFU, ZRANB3 / Fold change vs veh, ZRANB3 / RFU, CUL4A / Fold change vs veh, CUL4A / RFU, CCNY / Fold change vs veh, CCNY / RFU, UFL1 / Fold change vs veh, UFL1 / RFU, COG3 / Fold change vs veh, COG3 / RFU, DIAPH2 / Fold change vs veh, DIAPH2 / RFU, SKA2 / Fold change vs veh, SKA2 / RFU, AFF3 / Fold change vs veh, AFF3 / RFU, LMF1 / Fold change vs veh, LMF1 / RFU, IPO11 / Fold change vs veh, IPO11 / RFU, DFFB / Fold change vs veh, DFFB / RFU, FOXP1 / Fold change vs veh, FOXP1 / RFU, CARD8 / Fold change vs veh, CARD8 / RFU, STRN3 / Fold change vs veh, STRN3 / RFU, ADK / Fold change vs veh, ADK / RFU, RASSF2 / Fold change vs veh, RASSF2 / RFU, WIPF1 / Fold change vs veh, WIPF1 / RFU, LARP1B / Fold change vs veh, LARP1B / RFU, RASA1 / Fold change vs veh, RASA1 / RFU, RB1 / Fold change vs veh, RB1 / RFU, PPFIA1 / Fold change vs veh, PPFIA1 / RFU, MAT2A / Fold change vs veh, MAT2A / RFU, CCT5 / Fold change vs veh, CCT5 / RFU, WDR92 / Fold change vs veh, WDR92 / RFU, CUX1 / Fold change vs veh, CUX1 / RFU, TTC7A / Fold change vs veh, TTC7A / RFU, TMEM135 / Fold change vs veh, TMEM135 / RFU, DEPTOR / Fold change vs veh, DEPTOR / RFU, CPM / Fold change vs veh, CPM / RFU, DNAJB6 / Fold change vs veh, DNAJB6 / RFU, CACNA2D3 / Fold change vs veh, CACNA2D3 / RFU, DTX4 / Fold change vs veh, DTX4 / RFU, TFCP2 / Fold change vs veh, TFCP2 / RFU, GMCL1 /// GMCL1P1 / Fold change vs veh, GMCL1 /// GMCL1P1 / RFU, AEBP2 / Fold change vs veh, AEBP2 / RFU, SNHG1 /// SNORD22 /// SNORD25 /// SNORD26 /// SNORD27 /// SNORD28 /// SNORD29 /// SNORD31 / Fold change vs veh, SNHG1 /// SNORD22 /// SNORD25 /// SNORD26 /// SNORD27 /// SNORD28 /// SNORD29 /// SNORD31 / Fold change (Aza/veh), C12orf56 (ProbeSet 11735607_a_at) / Fold change (ACY-1035/veh), C12orf56 (ProbeSet 11735607_a_at) / Fold change (Aza/veh), FGFR1OP (ProbeSet 11751329_s_at) / Fold change (ACY-1035/veh), FGFR1OP (ProbeSet 11751329_s_at) / Fold change (Aza/veh), VPS36 (ProbeSet 11739960_a_at) / Fold change (ACY-1035/veh), VPS36 (ProbeSet 11739960_a_at) / RFU SYPL1 (11715823_x_at) / Fold change /veh SYPL1 (11715823_x_at) / RFU IGFBP7 (11715501_s_at) / Fold change /veh IGFBP7 (11715501_s_at) / RFU REEP3 (11722064_at) / Fold change /veh REEP3 (11722064_at) / RFU IGLL1 (11728026_x_at) / Fold change /veh IGLL1 (11728026_x_at): dose or concentration left out as unconfirmed
Settings: ProbeSet 11715478_a_at; LIST B

Nc1ncn([C@@H]2O[C@H](CO)[C@@H](O)[C@H]2O)c(=O)n1 [azacitidine]
Fold change vs veh, TFRC: 0.85
